{"source": "patent US7662789B2", "about": "“Peptide substance restoring myocardium function” (“Access Bioscience” CJSC, priority 2004, dated 2010)", "key": {"[1]": {"test_system": "isolated rat heart", "assay": "Contractive ability of isolated rat heart after ischemia", "conditions": "10 min re-perfusion", "protocol": "Another experiment was devoted to the study of the tetrapeptide's effect on the restoration of isolated rat heart's ability to contract after a period of ischemia. The study was conducted on 3 groups, 8 animals in each, in case of the additionally strained cardiac muscle working mode, under conditions of induced contraction rhythm and perfusion solution temperature increase up to 37° C.\nThe other series of experiments conducted on 12 rat hearts was aimed at the study of the tetrapeptide's protective effect in case of its addition into the perfusate in the concentration of […] before the induction of ischemia. Then “severe” stimulation was conducted (5 Hz frequency) in the heart and contractive activity was estimated. […] The administration of the tetrapeptide in a very small dose of 0.005 μg/ml preserved the heart, which was on the verge of stopping, from fibrillation and contractive activity decrease, restoring the value of the latter index."}, "[2]": {"test_system": "adrenalin dystrophy in rat myocardium", "assay": "Adrenalin dystrophy in rat myocardium", "format": "in vivo, rats", "conditions": "for Diene conjugates content / Malon dialdegide content: 24 hours", "protocol": "The experiment was conducted on 30 white mongrel rats with body weight of 180-200 g. The animals were randomly subdivided into three groups, each consisting of 10 animals. Adrenalin dystrophy was induced by administering the fresh adrenalin solution (“Serva”, USA) intraperitoneally in the dose of 2 mg/kg. The control animals received 0.9% NaCl solution. Then the experimental animals were in 1 and 5 hours treated with Ala-Glu-Asp-Arg (SEQ ID NO:1) tetrapeptide in the dose of 0.05 μg per animal in sterile 0.9% NaCl solution. In 4 hours since the beginning of the experiment cardiac muscle bioptates weighing approximately 10 mg were taken for the identification of cardiac dehydrogenases activity and glycogen content in the myocardium. In 24 hours the animals were killed by momentary decapitation. Left ventricle fragments were frozen in […]. In cryostatic slices the activity of succinatedehydrogenase (SDH) was histochemically identified, as well as of NADN-dehydrogenase (NADN-DH), lactatedehydrogenase and glycogen content."}, "[3]": {"test_system": "white mongrel male mice", "assay": "Acute toxicity, single intramuscular administration in mice", "format": "in vivo", "conditions": "single i.m. 1-5 mg/kg; dose 5000 times exceeding the therapeutic one", "protocol": "The experiment aimed at the study of acute toxicity was conducted on 66 white mongrel male mice with body weight of 20-23 g. The animals were randomly subdivided into 6 equal groups. The substance was administered once, intramuscularly, in 0.25 ml volume, in the doses of 1 mg/kg, 2 mg/kg, 3 mg/kg, 4 mg/kg and 5 mg/kg in sterile 0.9% NaCl solution. The control animals received 0.9% NaCl solution."}, "[4]": {"test_system": "white mongrel male rats", "assay": "Sub-acute toxicity, 90 days intramuscular in rats", "format": "in vivo", "conditions": "90 days i.m. daily; 1 μg/kg, 0.1 mg/kg, 1 mg/kg; 100-1000 times the therapeutic doses", "protocol": "The study of sub-acute toxicity was conducted on 60 white mongrel male rats with body weight of 160-240 g. […] Before the substance's administration, as well as on the 30th, 60th and 90th day after the beginning of the course the morphological composition and the properties of the animals' peripheric blood were studied. Upon completion of the experiment the biochemical and coagulological indices of the animals' blood were studied."}, "[5]": {"test_system": "male guinea pigs", "assay": "Chronic toxicity, 6 months intramuscular in guinea pigs", "protocol": "Common toxicity of Ala-Glu-Asp-Arg (SEQ ID NO:1) tetrapeptide was studied in compliance with the requirements stated in “Manual for experimental (pre-clinical) study of new pharmaceutical substances” (2000): acute toxicity in case of single administration of the substance, as well as sub-acute and chronic toxicity in case of long-term administration of the tetrapeptide.\nThe studies of chronic toxicity were conducted for 6 months, basing on the duration of the recommended clinical administration of the preparation, on 96 male guinea pigs with body weight of 300-340 g. The experimental animals received the tetrapeptide daily, once a day, intramuscularly, for 6 months in the doses of 1 μg/kg, 0.1 mg/kg and 1 mg/kg in 0.5 ml of 0.9% NaCl solution. The control animals received 0.9% NaCl solution in the same volume and by the same schedule. Common methods were used for the identification of the quantity of erythrocytes, hemoglobin, reticulocytes, thrombocytes, leukocytes, as well as of the leukocyte formula, erythrocyte sedimentation rate (ESR) and erythrocyte resistance in the peripheric blood of the animals. Alongside with this general protein content in the blood serum was estimated by Lowry's method, as well as of potassium and sodium using the method of plasma spectrophotometry. After the completion of the experiment the pathomorphological study of the brain and spinal cord, spinal cord ganglia, thyroid gland, parathyroid glands, adrenal glands, testis, pituitary gland, heart, lungs, aorta, liver, kidney, urinary bladder, pancreas, stomach, small intestine, large intestine, thymus, spleen, lymph nodes and bone marrow was conducted."}, "[6]": {"test_system": "succinate dehydrogenase", "conditions": "myocardium slices from different animals"}, "[7]": {"test_system": "isolated rat heart", "assay": "Contractive ability of isolated rat heart after ischemia", "conditions": "0.005 μg/ml; 12 rat hearts; severe stimulation 5 Hz"}, "[8]": {"conditions": "0.005 μg/ml, listed as tetrapeptide"}, "[9]": {"conditions": "adrenalin + 0.05 μg per animal, liver"}, "[10]": {"conditions": "adrenalin + tetrapeptide, 4 hours"}}, "note": "Where a SMILES comes first, the peptide text is derived from it."}
{"molecule": "C[C@H](N)C(=O)N[C@@H](CCC(=O)O)C(=O)N[C@@H](CC(=O)O)C(=O)N[C@@H](CCCNC(=N)N)C(=O)O", "note": "[Tetrapeptide, L-alanyl-L-glutamyl-L-aspartyl-L-arginine] (H-AEDR-OH)", "values": [{"measurement": "Amplitude of contractions, % of init.", "setting": "[1]; 0.005 μg/ml", "value": "75 ± 12 % of init."}, {"measurement": "Coronary duct", "setting": "[1]; 0.005 μg/ml", "value": "10.8 ± 1.6", "unit": "mL/min"}, {"measurement": "Extent of contracture", "setting": "[1]; 0.005 μg/ml", "value": "1.3 ± 0.4", "unit": "mm"}, {"measurement": "Max. speed of contraction, % of init.", "setting": "[1]; 0.005 μg/ml", "value": "56 ± 10 % of init."}, {"measurement": "Max. speed of relaxation, % of init.", "setting": "[1]; 0.005 μg/ml", "value": "69 ± 8 % of init."}, {"measurement": "Amplitude of contractions, % of init.", "setting": "[1]; [8]", "value": "75±12 % of init."}, {"measurement": "Coronary duct", "setting": "[1]; [8]", "value": "10.8 ± 1.6", "unit": "mL/min"}, {"measurement": "Amplitude of contractions, % of init.", "setting": "[1]; 0.05 μg/ml", "value": "36 ± 10 % of init."}, {"measurement": "Coronary duct", "setting": "[1]; 0.05 μg/ml", "value": "9.6 ± 0.7", "unit": "mL/min"}, {"measurement": "Extent of contracture", "setting": "[1]; 0.05 μg/ml", "value": "2.5 ± 0.3", "unit": "mm"}, {"measurement": "Max. speed of contraction, % of init.", "setting": "[1]; 0.05 μg/ml", "value": "28 ± 7 % of init."}, {"measurement": "Max. speed of relaxation, % of init.", "setting": "[1]; 0.05 μg/ml", "value": "28 ± 6 % of init."}, {"measurement": "Quantity of diene conjugates in the myocardium", "setting": "[2]; 24 hours after induction of dystrophy, control 176±24", "value": "110 ± 17", "unit": "nmol/g"}, {"measurement": "Diene conjugates content", "setting": "[2]; adrenalin 2 mg/kg i.p. + 0.05 μg per animal at 1 and 5 h, heart", "value": "110 ± 17 nmole/g of tissue"}, {"measurement": "Malon dialdegide content", "setting": "[2]; adrenalin + 0.05 μg per animal, heart", "value": "173 ± 25 nmole/g of tissue"}, {"measurement": "Diene conjugates content", "setting": "[2]; [9]", "value": "92 ± 11 nmole/g of tissue"}, {"measurement": "Malon dialdegide content", "setting": "[2]; [9]", "value": "270 ± 56 nmole/g of tissue"}, {"measurement": "Enzyme activity in the myocardium tissue: LDH", "setting": "[2]; [10]", "value": "0.154 ± 0.011", "unit": "rel. optical density unit"}, {"measurement": "Enzyme activity in the myocardium tissue: NADN-DH", "setting": "[2]; [10]", "value": "0.344 + 0.019 rel. optical density unit"}, {"measurement": "Enzyme activity in the myocardium tissue: SDH", "setting": "[2]; [10]", "value": "0.284 ± 0.013", "unit": "rel. optical density unit"}, {"measurement": "Glycogen content", "setting": "[2]; adrenalin + tetrapeptide, myocardium, 4 hours", "value": "0.168±0.021", "unit": "rel. optical density unit"}, {"measurement": "Acute toxicity, toxic reactions", "setting": "[3]", "value": "does not cause toxic reactions"}, {"measurement": "Sub-acute toxicity, side effects", "setting": "[4]", "value": "absence of side effects"}, {"measurement": "Basophils", "setting": "[5]; 1 μg/kg, 3 months", "value": "0.69 ± 0.05", "unit": "%"}, {"measurement": "ESR", "setting": "[5]; 1 μg/kg, 3 months", "value": "1.87 ± 0.07", "unit": "mm/hour"}, {"measurement": "Eosinophils", "setting": "[5]; 1 μg/kg, 3 months", "value": "0.64 ± 0.04", "unit": "%"}, {"measurement": "Erythrocyte resistance, minimum", "setting": "[5]; 1 μg/kg, 3 months", "value": "0.33 ± 0.02", "unit": "% NaCl"}, {"measurement": "Erythrocytes", "setting": "[5]; 1 μg/kg, 3 months", "value": "5.4 ± 0.2 ×10^12/l"}, {"measurement": "General protein in the blood serum", "setting": "[5]; 1 μg/kg, 3 months", "value": "72.6 ± 3.3", "unit": "g/L"}, {"measurement": "Hemoglobin", "setting": "[5]; 1 μg/kg, 3 months", "value": "13.8 ± 1.2"}, {"measurement": "Leukocytes", "setting": "[5]; 1 μg/kg, 3 months", "value": "11.2 ± 0.8 ×10^9/l"}, {"measurement": "Lymphocytes", "setting": "[5]; 1 μg/kg, 3 months", "value": "50.7 ± 2.4", "unit": "%"}, {"measurement": "Monocytes", "setting": "[5]; 1 μg/kg, 3 months", "value": "2.4 ± 0.03", "unit": "%"}, {"measurement": "Potassium in the blood serum", "setting": "[5]; 1 μg/kg, 3 months", "value": "5.3 ± 1.8", "unit": "mmol/L"}, {"measurement": "Reticulocytes", "setting": "[5]; 1 μg/kg, 3 months", "value": "1.2 ± 0.07", "unit": "%"}, {"measurement": "Segmented neutrophils", "setting": "[5]; 1 μg/kg, 3 months", "value": "44.9 ± 2.5", "unit": "%"}, {"measurement": "Sodium in the blood serum", "setting": "[5]; 1 μg/kg, 3 months", "value": "154.8 ± 6.8", "unit": "mmol/L"}, {"measurement": "Stab neutrophils", "setting": "[5]; 1 μg/kg, 3 months", "value": "0.27 ± 0.07", "unit": "%"}, {"measurement": "Thrombocytes", "setting": "[5]; 1 μg/kg, 3 months", "value": "143.6 ± 8.4 ×10^9/l"}, {"measurement": "Basophils", "setting": "[5]; 1 μg/kg, 6 months", "value": "0.71 ± 0.05", "unit": "%"}, {"measurement": "ESR", "setting": "[5]; 1 μg/kg, 6 months", "value": "2.05 ± 0.04", "unit": "mm/hour"}, {"measurement": "Eosinophils", "setting": "[5]; 1 μg/kg, 6 months", "value": "0.75 ± 0.08", "unit": "%"}, {"measurement": "Erythrocyte resistance, maximum", "setting": "[5]; 1 μg/kg, 6 months", "value": "0.44 ± 0.04", "unit": "% NaCl"}, {"measurement": "Erythrocyte resistance, minimum", "setting": "[5]; 1 μg/kg, 6 months", "value": "0.35 ± 0.05", "unit": "% NaCl"}, {"measurement": "Erythrocytes", "setting": "[5]; 1 μg/kg, 6 months", "value": "5.2 ± 0.4 ×10^12/l"}, {"measurement": "General protein in the blood serum", "setting": "[5]; 1 μg/kg, 6 months", "value": "73.1 ± 3.6", "unit": "g/L"}, {"measurement": "Hemoglobin", "setting": "[5]; 1 μg/kg, 6 months", "value": "14.2 ± 0.6"}, {"measurement": "Leukocytes", "setting": "[5]; 1 μg/kg, 6 months", "value": "11.9 ± 0.5 ×10^9/l"}, {"measurement": "Lymphocytes", "setting": "[5]; 1 μg/kg, 6 months", "value": "52.7 ± 2.2", "unit": "%"}, {"measurement": "Monocytes", "setting": "[5]; 1 μg/kg, 6 months", "value": "2.5 ± 0.05", "unit": "%"}, {"measurement": "Potassium in the blood serum", "setting": "[5]; 1 μg/kg, 6 months", "value": "5.4 ± 2.2", "unit": "mmol/L"}, {"measurement": "Reticulocytes", "setting": "[5]; 1 μg/kg, 6 months", "value": "1.3 ± 0.08", "unit": "%"}, {"measurement": "Segmented neutrophils", "setting": "[5]; 1 μg/kg, 6 months", "value": "43.4 ± 3.2", "unit": "%"}, {"measurement": "Sodium in the blood serum", "setting": "[5]; 1 μg/kg, 6 months", "value": "154.6 ± 6.9", "unit": "mmol/L"}, {"measurement": "Stab neutrophils", "setting": "[5]; 1 μg/kg, 6 months", "value": "0.36 ± 0.05", "unit": "%"}, {"measurement": "Thrombocytes", "setting": "[5]; 1 μg/kg, 6 months", "value": "144.9 ± 9.8 ×10^9/l"}, {"measurement": "Chronic toxicity, side effects", "setting": "[5]; 6 months i.m. daily, 1 μg/kg, 0.1 mg/kg, 1 mg/kg, 100-1000 times the therapeutic doses", "value": "absence of side effects"}, {"measurement": "General status, blood indices, internal organs, cardiovascular, respiratory, liver and kidney functions", "setting": "[5]; long-term administration", "value": "no pathologic changes"}, {"measurement": "Activity of succinate dehydrogenase", "setting": "[6]", "value": "inhibiting effect"}, {"measurement": "Protective effect when added into the perfusate before induced ischemia", "setting": "[7]", "value": "restrained the growth of contracture during the period of ischemia"}]}
